Common to all, as to type: cell membranes
Assay [1] addresses T1, Serotonin 3 (5-HT3) receptor (Rattus norvegicus, UniProt P35563+Q9JJ16).
T1 sequence (P35563 whole entry): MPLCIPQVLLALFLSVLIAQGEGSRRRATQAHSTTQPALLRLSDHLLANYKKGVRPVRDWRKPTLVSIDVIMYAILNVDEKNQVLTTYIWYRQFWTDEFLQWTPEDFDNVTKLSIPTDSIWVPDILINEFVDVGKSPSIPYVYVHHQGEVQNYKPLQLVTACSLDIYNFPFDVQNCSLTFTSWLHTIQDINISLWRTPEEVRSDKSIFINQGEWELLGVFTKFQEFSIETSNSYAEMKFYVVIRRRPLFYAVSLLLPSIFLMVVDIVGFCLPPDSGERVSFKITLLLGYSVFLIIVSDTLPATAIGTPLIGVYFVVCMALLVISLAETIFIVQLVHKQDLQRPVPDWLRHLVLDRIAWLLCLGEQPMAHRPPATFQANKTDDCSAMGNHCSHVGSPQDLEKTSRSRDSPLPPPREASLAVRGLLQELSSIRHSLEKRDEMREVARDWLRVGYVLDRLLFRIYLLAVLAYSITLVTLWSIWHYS
T1 sequence (Q9JJ16 whole entry): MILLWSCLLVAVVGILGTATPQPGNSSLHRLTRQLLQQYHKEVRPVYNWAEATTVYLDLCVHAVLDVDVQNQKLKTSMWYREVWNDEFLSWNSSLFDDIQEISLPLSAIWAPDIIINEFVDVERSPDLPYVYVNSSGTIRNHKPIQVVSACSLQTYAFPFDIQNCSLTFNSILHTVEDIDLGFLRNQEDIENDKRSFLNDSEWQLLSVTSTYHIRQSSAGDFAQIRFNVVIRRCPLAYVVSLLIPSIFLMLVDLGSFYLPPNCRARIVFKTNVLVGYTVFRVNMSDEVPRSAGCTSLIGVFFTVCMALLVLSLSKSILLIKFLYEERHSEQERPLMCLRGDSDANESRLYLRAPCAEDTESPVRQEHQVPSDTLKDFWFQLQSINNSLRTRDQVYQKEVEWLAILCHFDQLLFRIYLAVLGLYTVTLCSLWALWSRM
The experiment in a line: Binding affinity against 5-hydroxytryptamine 3 receptor in rat cortical membrane using [3H]GR-65630 as radioligand.

Assay [2] has as its target T2, D(2) dopamine receptor (Rattus norvegicus, UniProt P61169). The assay can be described thus: Binding affinity against dopamine D2 receptor in rat brain synaptic membrane using [3H]-spiperone as radioligand.
Assay [3] addresses T2, D(2) dopamine receptor. The assay can be described thus: Compound was tested for binding affinity against Dopamine receptor D2 in rat brain synaptic membrane using [3H]-spiperone as radioligand.

T2 sequence (P61169 whole entry): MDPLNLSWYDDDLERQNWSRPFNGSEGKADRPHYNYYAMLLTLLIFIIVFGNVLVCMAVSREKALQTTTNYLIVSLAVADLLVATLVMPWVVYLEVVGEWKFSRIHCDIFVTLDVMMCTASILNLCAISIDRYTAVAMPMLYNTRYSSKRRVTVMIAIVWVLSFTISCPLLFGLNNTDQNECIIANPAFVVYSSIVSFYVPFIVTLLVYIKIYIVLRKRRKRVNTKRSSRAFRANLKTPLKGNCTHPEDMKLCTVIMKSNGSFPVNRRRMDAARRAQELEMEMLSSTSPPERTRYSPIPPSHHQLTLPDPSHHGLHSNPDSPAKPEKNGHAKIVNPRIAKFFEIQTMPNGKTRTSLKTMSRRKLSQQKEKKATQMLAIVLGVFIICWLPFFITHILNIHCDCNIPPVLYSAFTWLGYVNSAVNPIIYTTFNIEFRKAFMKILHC

Take `CCN1CCN(C)C[C@H](NC(=O)c2cc(Cl)c(N)cc2OC)C1`: the IC50 in assay [1] was 7 nM; in assay [2], 517 nM.
On to `CCN1CCN(C)CC(NC(=O)c2cc(Cl)c(N)cc2OC)C1` (stereo unspecified), for which the IC50 worked out at 8.5 nM in assay [1] and 127 nM in assay [2].
As for `CCN1CCCC[C@@H](NC(=O)c2cc(Cl)c(N)cc2OC)C1`, the IC50 in assay [1] came out at 134 nM; in assay [2], 19 nM.
In the same order, the values of `CCCN1CCCCC(NC(=O)c2cc(Cl)c(N)cc2OC)C1` (stereo unspecified) are 37 nM and 57 nM.
Taken in the same sequence, the figures for `CCN1CCN(C)CC(NC(=O)c2cc(Cl)c(NC)cc2OC)C1` (stereo unspecified) were 4.8 nM and 61 nM.
In the case of `CCN1CCCC[C@H](NC(=O)c2cc(Cl)c(N)cc2OC)C1`, the concentration for half-maximal inhibition (IC50) is 10 nM in assay [1] and over 1000 nM in assay [2].
Regarding `CCN1CCN(C)C[C@@H](NC(=O)c2cc(Cl)c(N)cc2OC)C1`, the IC50 in assay [1] was determined as 12 nM; in assay [2] it was 87 nM.
Turning to `CCN1CCCC[C@@H](NC(=O)c2cc(Cl)c(NC)cc2OC)C1`, the IC50 in assay [1] stood at 97 nM; in assay [2], 4.5 nM.
For the compound `CCN1CCCCC(NC(=O)c2cc(Cl)c(NC)cc2OC)C1` (stereo unspecified), the figures for the IC50 in assay [1] and in assay [2] were 6.6 nM and 11 nM, respectively.
With `COc1cc(N)c(Cl)cc1C(=O)NC1CCCCN(C)C1` (stereo unspecified), in assay [1], the IC50 amounted to 36 nM.
Turning to `CCNc1cc(OC)c(C(=O)NC2CCCCN(CC)C2)cc1Cl` (stereo unspecified), the IC50 in assay [1] was 50 nM; in assay [2] it was 25 nM.
Taken in the same sequence, the figures for `CCN1CCCCC(NC(=O)c2cc(Cl)c(N)cc2OC)C1` (stereo unspecified) were 33 nM and 39 nM.
Taken in the same sequence, the figures for `CCNc1cc(OC)c(C(=O)NC2CN(C)CCN(CC)C2)cc1Cl` (stereo unspecified) were 1.9 nM and 181 nM.
For `COc1cc(N)c(Cl)cc1C(=O)NC1CCCCN(C(C)C)C1` (stereo unspecified), the IC50 was 640 nM in assay [1] and 87 nM in assay [2].
In the same order, the values of `CCN1CCCC[C@H](NC(=O)c2cc(Cl)c(NC)cc2OC)C1` are 4.5 nM and 367 nM.
For the compound `CCCN1CCN(C)CC(NC(=O)c2cc(Cl)c(N)cc2OC)C1` (stereo unspecified), the IC50 in assay [1] came out at 24 nM; in assay [2], 218 nM.
Consider `COc1cc(N)c(Cl)cc1C(=O)NC1CN(C)CCN(C)C1`, for which the IC50 in assay [1] was 9.6 nM; in assay [3], over 1000 nM.
Turning to `CCN1CCN(C)C[C@H](NC(=O)c2cc(Cl)c(NC)cc2OC)C1`, the figures for the half-inhibitory concentration (IC50) in assay [1] and in assay [2] were 1.5 nM and 320 nM, respectively.
`Cc1nccn1CC1CCc2c(c3ccccc3n2C)C1=O` (stereo unspecified) [ONDANSETRON] came in with an IC50 in assay [2] of over 1000 nM.

Usually IC50 stands for the concentration that inhibits the measured activity by half. A higher IC50 goes with a need for much substance.

(Values after ChEMBL document CHEMBL1131649, “A novel series of N-(hexahydro-1,4-diazepin-6-yl) and N-(hexahydroazepin- 3-yl)benzamides with high affinity for 5-HT3 and dopamine D2 receptors” (Bioorg Med Chem Lett, 1998).)
